Assay results as given in US6387947B1, “Antimicrobial cosmetic compositions” (E-L Management Corp., priority 1997, dated 2002).
“Also recorded” adds a separate entry of the source.

Tests used:
Enterics [1] = test: microbial challenge of nonionic oil-in-water emulsion, pool 1; format: cell-based; conditions: for concentration of microbes: 0.473% in emulsion
Protocol: (§1) A nonionic oil-in-water emulsion is prepared containing 0.473% 3-furan carboxylic acid. The formulation is divided into five portions, each one getting an inoculation at day 0, and a reinoculation after three weeks, of one of the following microbial cultures: (1)Enterics; (2) Pseudomonas; (3)Staphylococcus; (4)Yeast; and (5)Mold. The concentration of microbes in each individual formulation is calculated on the day of the inoculation, and then again calculated on day 2, and at the end of one, two, three (pre-reinoculation) and four weeks, at a variety of pH values. These are also compared with formulations containing 2-furan carboxylic acid and an identical series of microbes, and an acid pH control emulsion without a furan carboxylic acid added. All numbers, other than those listed as “<10”, are log base 10; thus, for example, “6.6” is equivalent to the presence of […] bacteria. Entries of <10 indicate less than 10 colony forming units, the lowest level of detection.

Pseudomonas [2] = test: microbial challenge of nonionic oil-in-water emulsion, pool 2; format: cell-based; conditions: for concentration of microbes: 0.473% in emulsion
Protocol: as §1

Staphylococcus = test: microbial challenge of nonionic oil-in-water emulsion, pool 3; format: cell-based; conditions: for concentration of microbes: 0.473% in emulsion
Protocol: The formulation is divided into five portions, each one getting an inoculation at day 0, and a reinoculation after three weeks, of one of the following microbial cultures: (1)Enterics; (2) Pseudomonas; (3)Staphylococcus; (4)Yeast; and (5)Mold. The concentration of microbes in each individual formulation is calculated on the day of the inoculation, and then again calculated on day 2, and at the end of one, two, three (pre-reinoculation) and four weeks, at a variety of pH values. These are also compared with formulations containing 2-furan carboxylic acid and an identical series of microbes, and an acid pH control emulsion without a furan carboxylic acid added. All numbers, other than those listed as “<10”, are log base 10; thus, for example, “6.6” is equivalent to the presence of […] bacteria. Entries of <10 indicate less than 10 colony forming units, the lowest level of detection.

Yeast = test: microbial challenge of nonionic oil-in-water emulsion, pool 4; format: cell-based; conditions: for concentration of microbes: 0.473% in emulsion
Protocol: as §1

Mold = test: microbial challenge of nonionic oil-in-water emulsion, pool 5; format: cell-based; conditions: for concentration of microbes: 0.473% in emulsion
Protocol: as §1

[3] = antiirritant effect against Balsam of Peru on ventral forearms of volunteers; format: in vivo, human; conditions: 0.1% in hydroalcohol 1:1, applied twenty minutes before Balsam of Peru; Minolta Chromameter; seven volunteers
Protocol: Seven volunteers with a history of skin sensitivity to Balsam of Peru are chosen for the study.
The test compounds are applied to the ventral forearms of panelists. The material is allowed to absorb for twenty minutes and then Balsam of Peru, an irritant is applied on the test sites. Skin irritation is measured in terms of increase in skin redness. The degree of redness is measured with a Minolta Chromameter and compared with the controls, the positive control being skin treated with Balsam of Peru alone, and the negative control being a skin site treated with 10% cola solution(a known antiirritant), and challenged like the test products.

[4] = system: PLA2 enzyme obtained from snake venom; conditions: assay concentrations 0.01, 0.1 and 1 mg/ml
Protocol: The enzyme reaction is accomplished in a cuvette containing […] of phosphate buffered saline. Fluorometric substrate NBD-C6-HPC is solubilized 1 mM in EtOH, and is diluted in the reaction mixture to yield a 10 μM final concentration. The assay is initiated with the addition of 0.001 units per μl of PLA2 enzyme obtained from snake venom. Enzyme activity is monitored either with or without the presence of potential inhibitors. […] Prior to enzyme addition, samples are measured fluorometrically at excitation 470 and emission 570 to determine background level of fluorescensce. Following enzyme addition, samples are monitored every 15 minutes over a 60 minute period.

[5] = system: lymphocyte adhesion to endothelial cells; test: inhibition of lymphocyte adhesion to endothelial cells; format: cell-based, human
Protocol: Endothelial cells are grown to confluence and washed thoroughly with basal media prior to the experiment to remove all fetal calf serum. The test compounds are then added to the endothelial culture well and incubated for 2 hours. IL-1β is added to stimulated expression of adhesion molecules on the endothelial cells before lymphocytes are added. Lymphocytes are isolated from blood collected from adult human subjects and added to the endothelial culture wells. PHA is added to stimulate adhesion molecule expression in the lymphocytes and the cultures incubated overnight. After a brief washing procedure, cells are incubated with Rose Bengal, and the number of adherent cells assessed by measuring the absorbance at 570 nm.

Enterics [6] = test: microbial challenge of nonionic oil-in-water emulsion, pool 1; format: cell-based; conditions: 0.473% in emulsion
Pseudomonas [7] = test: microbial challenge of nonionic oil-in-water emulsion, pool 2; format: cell-based; conditions: 0.473% in emulsion

In the case of `O=C(O)c1ccoc1` [3-furan carboxylic acid], the “antimicrobial activity against Enterics, in words” value (Enterics [1]) was “capable of preventing growth”, the concentration of microbes (Enterics [1]; pH 3.0, Week 1) was <10 colony forming units and the concentration of microbes (Enterics [1]; pH 3.0, Week 2) was <10 colony forming units. The concentration of microbes (Enterics [1]; pH 3.0, Week 3) was <10 colony forming units, the concentration of microbes (Enterics [1]; pH 4.0, Day 0) was 6.6 log base 10 and the concentration of microbes (Enterics [1]; pH 4.0, Week 1) was <10 colony forming units. The concentration of microbes (Enterics [1]; pH 4.0, Week 2) was <10 colony forming units, the concentration of microbes (Enterics [1]; pH 5.0, Week 1) was <10 colony forming units and the concentration of microbes (Enterics [1]; pH 5.0, Week 3) was <10 colony forming units. The “antimicrobial activity against Pseudomonas, in words” value (Pseudomonas [2]) was “capable of preventing growth”, the concentration of microbes (Pseudomonas [2]; pH 3.0, Week 3) was <10 colony forming units and the concentration of microbes (Pseudomonas [2]; pH 4.0, Week 1) was <10 colony forming units. The concentration of microbes (Pseudomonas [2]; pH 4.0, Week 2) was <10 colony forming units, the concentration of microbes (Pseudomonas [2]; pH 4.0, Week 3) was <10 colony forming units and the concentration of microbes (Pseudomonas [2]; pH 5.0, Week 1) was <10 colony forming units. The concentration of microbes (Pseudomonas [2]; pH 5.0, Week 2) was <10 colony forming units, the concentration of microbes (Pseudomonas [2]; pH 5.0, Week 4) was <10 colony forming units and the “antimicrobial activity against Staphylococcus, in words” value (Staphylococcus) was “capable of preventing growth”. For the same compound, the concentration of microbes (Staphylococcus; pH 3.0, Day 0) was 6.3 log base 10, the concentration of microbes (Staphylococcus; pH 3.0, Day 2) was <10 colony forming units and the concentration of microbes (Staphylococcus; pH 3.0, Week 1) was <10 colony forming units. The concentration of microbes (Staphylococcus; pH 3.0, Week 2) was <10 colony forming units, the concentration of microbes (Staphylococcus; pH 3.0, Week 3) was <10 colony forming units and the concentration of microbes (Staphylococcus; pH 3.0, Week 4) was <10 colony forming units. The concentration of microbes (Staphylococcus; pH 4.0, Day 0) was 6.3 log base 10, the concentration of microbes (Staphylococcus; pH 4.0, Day 2) was <10 colony forming units and the concentration of microbes (Staphylococcus; pH 4.0, Week 1) was <10 colony forming units. For the same compound, the concentration of microbes (Staphylococcus; pH 4.0, Week 2) was <10 colony forming units, the concentration of microbes (Staphylococcus; pH 4.0, Week 3) was <10 colony forming units and the concentration of microbes (Staphylococcus; pH 4.0, Week 4) was <10 colony forming units. For the same compound, the concentration of microbes (Staphylococcus; pH 5.0, Day 0) was 6.3 log base 10, the concentration of microbes (Staphylococcus; pH 5.0, Day 2) was <10 colony forming units and the concentration of microbes (Staphylococcus; pH 5.0, Week 1) was <10 colony forming units. The concentration of microbes (Staphylococcus; pH 5.0, Week 2) was <10 colony forming units, the concentration of microbes (Staphylococcus; pH 5.0, Week 3) was <10 colony forming units and the concentration of microbes (Staphylococcus; pH 5.0, Week 4) was <10 colony forming units. The “antimicrobial activity against yeast, in words” value (Yeast) was “substantially reducing the growth; also recorded: superior to 2-furan carboxylic acid”, the concentration of microbes (Yeast; pH 3.0, Day 0) was 5.7 log base 10 and the concentration of microbes (Yeast; pH 3.0, Day 2) was <10 colony forming units. The concentration of microbes (Yeast; pH 3.0, Week 1) was <10 colony forming units, the concentration of microbes (Yeast; pH 3.0, Week 2) was <10 colony forming units and the concentration of microbes (Yeast; pH 3.0, Week 3) was <10 colony forming units. The concentration of microbes (Yeast; pH 3.0, Week 4) was <10 colony forming units, the concentration of microbes (Yeast; pH 4.0, Day 0) was 5.7 log base 10 and the concentration of microbes (Yeast; pH 4.0, Day 2) was 2.5 log base 10. For the same compound, the concentration of microbes (Yeast; pH 4.0, Week 1) was <10 colony forming units, the concentration of microbes (Yeast; pH 4.0, Week 2) was <10 colony forming units and the concentration of microbes (Yeast; pH 4.0, Week 3) was <10 colony forming units. For the same compound, the concentration of microbes (Yeast; pH 4.0, Week 4) was <10 colony forming units, the concentration of microbes (Yeast; pH 5.0, Day 0) was 5.7 log base 10 and the concentration of microbes (Yeast; pH 5.0, Day 2) was 2.5 log base 10. For the same compound, the concentration of microbes (Yeast; pH 5.0, Week 1) was 2.7 log base 10, the concentration of microbes (Yeast; pH 5.0, Week 2) was 1.7 log base 10 and the concentration of microbes (Yeast; pH 5.0, Week 3) was 2.0 log base 10. The concentration of microbes (Yeast; pH 5.0, Week 4) was 1.8 log base 10, the “antimicrobial activity against Mold, in words” value (Mold) was “capable of preventing growth; also recorded: superior to 2-furan carboxylic acid” and the concentration of microbes (Mold; pH 3.0, Day 0) was 5.2 log base 10. The concentration of microbes (Mold; pH 3.0, Day 2) was <10 colony forming units, the concentration of microbes (Mold; pH 3.0, Week 1) was <10 colony forming units and the concentration of microbes (Mold; pH 3.0, Week 2) was <10 colony forming units. The concentration of microbes (Mold; pH 3.0, Week 3) was <10 colony forming units, the concentration of microbes (Mold; pH 3.0, Week 4) was <10 colony forming units and the concentration of microbes (Mold; pH 4.0, Day 0) was 5.2 log base 10. For the same compound, the concentration of microbes (Mold; pH 4.0, Day 2) was <10 colony forming units, the concentration of microbes (Mold; pH 4.0, Week 1) was <10 colony forming units and the concentration of microbes (Mold; pH 4.0, Week 2) was <10 colony forming units. The concentration of microbes (Mold; pH 4.0, Week 3) was <10 colony forming units, the concentration of microbes (Mold; pH 4.0, Week 4) was <10 colony forming units and the concentration of microbes (Mold; pH 5.0, Day 0) was 5.2 log base 10. For the same compound, the concentration of microbes (Mold; pH 5.0, Day 2) was <10 colony forming units, the concentration of microbes (Mold; pH 5.0, Week 1) was <10 colony forming units and the concentration of microbes (Mold; pH 5.0, Week 2) was <10 colony forming units. The concentration of microbes (Mold; pH 5.0, Week 3) was <10 colony forming units, the concentration of microbes (Mold; pH 5.0, Week 4) was <10 colony forming units and the “effectiveness in preventing the onset of irritation (reduction of skin redness)” value [3] was 48%. The “PLA2 inhibition, in words” value [4] was “exceptionally active”, the “inhibition of adhesion of polymorphonuclear leukocytes (PMNs) to activated endothelial cells, in words” value [5] was “ability to inhibit the adhesion” and the “inhibition of lymphocyte adhesion, in words (absorbance at 570 nm, Rose Bengal)” value ([5]; concentrations of 0.5% and 1%, IL-1β and PHA stimulated) was “very potent inhibitors of lymphocyte adhesion”. For the same compound, the concentration of microbes (Enterics [6]; pH 3.0, Day 0) was 6.6 log base 10, the concentration of microbes (Enterics [6]; pH 3.0, Day 2) was <10 colony forming units and the concentration of microbes (Enterics [6]; pH 3.0, Week 4) was <10 colony forming units. The concentration of microbes (Enterics [6]; pH 4.0, Day 2) was <10 colony forming units, the concentration of microbes (Enterics [6]; pH 4.0, Week 3) was <10 colony forming units and the concentration of microbes (Enterics [6]; pH 4.0, Week 4) was <10 colony forming units. For the same compound, the concentration of microbes (Enterics [6]; pH 5.0, Day 0) was 6.6 log base 10, the concentration of microbes (Enterics [6]; pH 5.0, Day 2) was <10 colony forming units and the concentration of microbes (Enterics [6]; pH 5.0, Week 2) was <10 colony forming units. The concentration of microbes (Enterics [6]; pH 5.0, Week 4) was <10 colony forming units, the concentration of microbes (Pseudomonas [7]; pH 3.0, Day 2) was <10 colony forming units and the concentration of microbes (Pseudomonas [7]; pH 3.0, Week 1) was <10 colony forming units. The concentration of microbes (Pseudomonas [7]; pH 3.0, Week 2) was <10 colony forming units, the concentration of microbes (Pseudomonas [7]; pH 3.0, Week 4) was <10 colony forming units and the concentration of microbes (Pseudomonas [7]; pH 4.0, Day 2) was <10 colony forming units. For the same compound, the concentration of microbes (Pseudomonas [7]; pH 4.0, Week 4) was <10 colony forming units, the concentration of microbes (Pseudomonas [7]; pH 5.0, Day 2) was <10 colony forming units and the concentration of microbes (Pseudomonas [7]; pH 5.0, Week 3) was <10 colony forming units.
For `COc1cc(/C=C/C(=O)O)ccc1O` [Ferulic acid, ferulic acid], the “effectiveness in preventing the onset of irritation (reduction of skin redness)” value [3] was 72%.
